The results in this text go back to patent publication US9822114B2, “Tricyclic oxazolidinone antibiotic compounds” (Idorsia Pharmaceuticals Ltd, priority 2008, dated 2017).

One may read the MIC as the smallest concentration in the dilution series that meets the test's criterion for growth inhibition. Higher therefore signals a need for much substance.

One experiment relates to M. catarrhalis A894. Nature of the experiment: Minimal inhibitory concentration (MIC), microdilution method in cation-adjusted Mueller-Hinton Broth (CLSI M7-A7). The format is cell-based. Conditions: Moraxella catarrhalis, strain A894. As to the method: Minimal inhibitory concentrations (MICs; mg/1) were determined in cation-adjusted Mueller-Hinton Broth by a microdilution method following the description given in “Methods for Dilution Antimicrobial Susceptibility Tests for Bacteria that Grow Aerobically”, Approved standard, 7th ed., Clinical and Laboratory Standards Institute (CLSI) Document M7-A7, Wayne, Pa., USA, 2006.
Background: In broth dilution the organism is exposed to a series of concentrations in liquid medium.
In the case of `O=C1COc2ccc(N3C[C@@H](CCCN[C@H]4Cn5c(=O)ccc6ccc(F)c4c65)OC3=O)nc2N1` [Example 194, (R)-9-fluoro-1-{3-[(R)-2-oxo-3-(3-oxo-3,4-dihydro-2H-pyrido[3,2-b][1,4]oxazin-6-yl)-oxazolidin-5-yl]-propylamino}-1,2-dihydro-pyrrolo[3,2,1-ij]quinolin-4-one], the MIC was at most 0.031 µg/mL.

On to `O=C1CSc2ccc(N3C[C@H](CCCN[C@H]4Cn5c(=O)ccc6ccc(F)c4c65)OC3=O)nc2N1` [Example 195, (R)-9-fluoro-1-{3-[(S)-2-oxo-3-(3-oxo-3,4-dihydro-2H-pyrido[3,2-b][1,4]thiazin-6-yl)-oxazolidin-5-yl]-propylamino}-1,2-dihydro-pyrrolo[3,2,1-ij]quinolin-4-one], for which the MIC was at most 0.031 µg/mL.

`O=C1CSc2ccc(N3C[C@@H](CCCN[C@H]4Cn5c(=O)ccc6ccc(F)c4c65)OC3=O)nc2N1` [Example 196, (R)-9-fluoro-1-{3-[(R)-2-oxo-3-(3-oxo-3,4-dihydro-2H-pyrido[3,2-b][1,4]thiazin-6-yl)-oxazolidin-5-yl]-propylamino}-1,2-dihydro-pyrrolo[3,2,1-ij]quinolin-4-one] yielded a minimal inhibitory concentration (MIC) of at most 0.031 µg/mL.

The same experiment, now with this note: strain A894.
For the compound “(1R,2R)-2-(1-hydroxy-1-methyl-ethyl)-1-{3-[(R)-2-oxo-3-(3-oxo-3,4-dihydro-2H-benzo[1,4]thiazin-6-yl)-oxazolidin-5-yl]-propylamino}-1,2-dihydro-pyrrolo[3,2,1-ij]quinolin-4-one and (1S,2S)-2-(1-hydroxy-1-methyl-ethyl)-1-{3-[(R)-2-oxo-3-(3-oxo-3,4-dihydro-2H-benzo[1,4]thiazin-6-yl)-oxazolidin-5-yl]-propylamino}-1,2-dihydro-pyrrolo[3,2,1-ij]quinolin-4-one [Example 170]”, the “MIC for M. catarrhalis A894” value was determined as 0.25 µg/mL.

Consider “(1R,2R)-2-hydroxymethyl-1-{3-[(R)-2-oxo-3-(3-oxo-3,4-dihydro-2H-benzo[1,4]thiazin-6-yl)-oxazolidin-5-yl]-propylamino}-1,2-dihydro-pyrrolo[3,2,1-ij]quinolin-4-one and (1S,2S)-2-hydroxymethyl-1-{3-[(R)-2-oxo-3-(3-oxo-3,4-dihydro-2H-benzo[1,4]thiazin-6-yl)-oxazolidin-5-yl]-propylamino}-1,2-dihydro-pyrrolo[3,2,1-ij]quinolin-4-one [Example 163]”, for which the “MIC for M. catarrhalis A894” value amounted to 0.031 µg/mL.

“(1R,2R)-2-hydroxymethyl-1-{3-[(S)-2-oxo-3-(3-oxo-3,4-dihydro-2H-benzo[1,4]thiazin-6-yl)-oxazolidin-5-yl]-propylamino}-1,2-dihydro-pyrrolo[3,2,1-ij]quinolin-4-one and (1S,2S)-2-hydroxymethyl-1-{3-[(S)-2-oxo-3-(3-oxo-3,4-dihydro-2H-benzo[1,4]thiazin-6-yl)-oxazolidin-5-yl]-propylamino}-1,2-dihydro-pyrrolo[3,2,1-ij]quinolin-4-one [Example 164]”: the “MIC for M. catarrhalis A894” value amounted to 0.031 µg/mL.

With “(1R,2R)-2-methoxymethyl-1-{3-[(R)-2-oxo-3-(3-oxo-3,4-dihydro-2H-benzo[1,4]thiazin-6-yl)-oxazolidin-5-yl]-propylamino}-1,2-dihydro-pyrrolo[3,2,1-ij]quinolin-4-one and (1S,2S)-2-methoxymethyl-1-{3-[(R)-2-oxo-3-(3-oxo-3,4-dihydro-2H-benzo[1,4]thiazin-6-yl)-oxazolidin-5-yl]-propylamino}-1,2-dihydro-pyrrolo[3,2,1-ij]quinolin-4-one [Example 165]”, the “MIC for M. catarrhalis A894” value was determined as 0.125 µg/mL.

Regarding “(1R,2R)-4-oxo-1-{3-[(R)-2-oxo-3-(3-oxo-3,4-dihydro-2H-benzo[1,4]thiazin-6-yl)-oxazolidin-5-yl]-propylamino}-1,2-dihydro-4H-pyrrolo[3,2,1-ij]quinoline-2-carboxylic acid methyl ester and (1S,2S)-4-oxo-1-{3-[(R)-2-oxo-3-(3-oxo-3,4-dihydro-2H-benzo[1,4]thiazin-6-yl)-oxazolidin-5-yl]-propylamino}-1,2-dihydro-4H-pyrrolo[3,2,1-ij]quinoline-2-carboxylic acid methyl ester [Example 161]”, the “MIC for M. catarrhalis A894” value worked out at 0.125 µg/mL.

“(1R,2R)-4-oxo-1-{3-[(S)-2-oxo-3-(3-oxo-3,4-dihydro-2H-benzo[1,4]thiazin-6-yl)-oxazolidin-5-yl]-propylamino}-1,2-dihydro-4H-pyrrolo[3,2,1-ij]quinoline-2-carboxylic acid methyl ester and (1S,2S)-4-oxo-1-{3-[(S)-2-oxo-3-(3-oxo-3,4-dihydro-2H-benzo[1,4]thiazin-6-yl)-oxazolidin-5-yl]-propylamino}-1,2-dihydro-4H-pyrrolo[3,2,1-ij]quinoline-2-carboxylic acid methyl ester [Example 162]”: the “MIC for M. catarrhalis A894” value was 0.25 µg/mL.

Consider “(1R,2S)-2-methyl-1-{3-[(R)-2-oxo-3-(3-oxo-3,4-dihydro-2H-benzo[1,4]thiazin-6-yl)-oxazolidin-5-yl]-propylamino}-1,2-dihydro-pyrrolo[3,2,1-ij]quinolin-4-one and (1S,2R)-2-methyl-1-{3-[(R)-2-oxo-3-(3-oxo-3,4-dihydro-2H-benzo[1,4]thiazin-6-yl)-oxazolidin-5-yl]-propylamino}-1,2-dihydro-pyrrolo[3,2,1-ij]quinolin-4-one [Example 166]”, for which the “MIC for M. catarrhalis A894” value is “≦0.031 mg/l”.

With “(1R,2S)-2-methyl-1-{3-[(R)-2-oxo-3-(3-oxo-3,4-dihydro-2H-pyrido[3,2-b][1,4]thiazin-6-yl)-oxazolidin-5-yl]-propylamino}-1,2-dihydro-pyrrolo[3,2,1-ij]quinolin-4-one and (1S,2R)-2-methyl-1-{3-[(R)-2-oxo-3-(3-oxo-3,4-dihydro-2H-pyrido[3,2-b][1,4]thiazin-6-yl)-oxazolidin-5-yl]-propylamino}-1,2-dihydro-pyrrolo[3,2,1-ij]quinolin-4-one [Example 168]”, the “MIC for M. catarrhalis A894” value is reported as “≦0.031 mg/l”.

Regarding “(1R,2S)-2-methyl-1-{3-[(S)-2-oxo-3-(3-oxo-3,4-dihydro-2H-benzo[1,4]thiazin-6-yl)-oxazolidin-5-yl]-propylamino}-1,2-dihydro-pyrrolo[3,2,1-ij]quinolin-4-one and (1S,2R)-2-methyl-1-{3-[(S)-2-oxo-3-(3-oxo-3,4-dihydro-2H-benzo[1,4]thiazin-6-yl)-oxazolidin-5-yl]-propylamino}-1,2-dihydro-pyrrolo[3,2,1-ij]quinolin-4-one [Example 167]”, the “MIC for M. catarrhalis A894” value was “≦0.031 mg/l”.

For “(1R,2S)-2-methyl-1-{3-[(S)-2-oxo-3-(3-oxo-3,4-dihydro-2H-pyrido[3,2-b][1,4]thiazin-6-yl)-oxazolidin-5-yl]-propylamino}-1,2-dihydro-pyrrolo[3,2,1-ij]quinolin-4-one and (1S,2R)-2-methyl-1-{3-[(S)-2-oxo-3-(3-oxo-3,4-dihydro-2H-pyrido[3,2-b][1,4]thiazin-6-yl)-oxazolidin-5-yl]-propylamino}-1,2-dihydro-pyrrolo[3,2,1-ij]quinolin-4-one [Example 169]”, the “MIC for M. catarrhalis A894” value is given as “≦0.031 mg/l”.

Turning to “(RS)-1-({[(R)-3-(4-ethoxy-phenyl)-2-oxo-oxazolidin-5-ylmethyl]-amino}-methyl)-9-fluoro-1,2-dihydro-pyrrolo[3,2,1-ij]quinolin-4-one [Example 36]”, the “MIC for M. catarrhalis A894” value came to 8 µg/mL.

For the compound “N—((RS)-9-fluoro-4-oxo-1,2-dihydro-4H-pyrrolo[3,2,1-ij]quinolin-1-yl)-N-{3-[(R)-2-oxo-3-(3-oxo-3,4-dihydro-2H-benzo[1,4]thiazin-6-yl)-oxazolidin-5-yl]-propyl}-acetamide and (RS)-1-{3-[(R)-3-(4-acetyl-3-oxo-3,4-dihydro-2H-benzo[1,4]thiazin-6-yl)-2-oxo-oxazolidin-5-yl]-propylamino}-9-fluoro-1,2-dihydro-pyrrolo[3,2,1-ij]quinolin-4-one [Example 172]”, the “MIC for M. catarrhalis A894” value was found to be 0.25 µg/mL.
